≈ marks a conversion by molar mass, not a printed value. Counter-ions that a name gives are not always drawn.
Assays:
[1] = test system: B-16 melanoma cells implanted in mice; experiment: Animal test of growth inhibition of implanted B-16 melanoma in mice; type: in vivo; settings: tumor weight vs control at day 14; for inhibition in vivo at 100 mg: Mus musculus, B16, read-out: Tumor inhibiting efficiency, female BDF1-JCR mice, 1 x 10^5 B-16 cells subcutaneously; for Tumor inhibiting efficiency: female BDF1-JCR mice
Procedure: Animal tests were conducted to examine the activity of several compounds including 2-(2-aminoethylthio)ethyl trimethyl silane in the inhibiting power against the growth of the B-16 melanoma cells implanted in mice as the test animals.
Thus each of 12 female mice of the BDF1-JCR lineage was implanted subcutaneously with 1 x 10^5 cells of the B-16 black tumor.
Six of the thus treated mice were bred as such as a control group and the other six mice as the test group were orally administrated once a day with 100 mg of the test compound for 5 days beginning with the second day of the implantation.
The results of the tests were expressed by the tumor inhibiting efficiency in % calculated by the following equation, in which W^1 is the averaged tumor weight per mouse in the control group and W^2 is the averaged tumor weight per mouse in the test group. [formula]
For comparison, similar animal tests were undertaken with FT-207 as a derivative of 5-fluorouracil with the dose amount at one time increased to 130 mg.

Lewis lung cancer cells = experiment: In vitro tissue culture test of tumor cell growth inhibition; type: cell-based; settings: Lewis lung carcinoma, Eagle's medium with 10 % calf blood plasma, 37 °C, compound added after 24 hours, three further days
Procedure: (§1) An in vitro test by tissue culture was undertaken for the activity of 2-(2-aminoethylthio)ethyl trimethyl silane against the growth of three kinds of tumor cells. The tumor cells used in the test were Ehrlich's cancer cells, Lewis lung cancer cells and B-16 melanoma cells and each kind of the above tumor cells was cultured in several Eagle's nutrient media admixed with 10 % of calf blood plasma at 37 °C.
(§2) After 24 hours from the start of the culture, 2-(2-amino- ethylthio)ethyl trimethyl silane was added to each of the nutrient media in a different concentration and, after additional three days at the same temperature, the conentration IC50 was determined with which the multiplication of the tumor cells was inhibited in 50 % of the tested groups. The results were as shown below

Ehrlich's cancer cells = experiment: as above; type: cell-based; settings: Eagle's medium with 10 % calf blood plasma, 37 °C, compound added after 24 hours, three further days
Procedure: as §1, §2

B-16 melanoma cells = experiment: as above; type: cell-based; settings: Mus musculus, B16, Eagle's medium with 10 % calf blood plasma, 37 °C, compound added after 24 hours, three further days
Procedure: as §1, §2

[2] = oral, 100 mg once a day for 5 days from second day
[3] = 1 x 10^5 B-16 cells subcutaneously, oral, 100 mg once a day for 5 days from second day

SMILES | inhibition in vivo at 100 mg [1, 2] [%] | other results
C[Si](C)(CCSCCN)CCC(F)(F)F [(CF3CH2CH2)Me2Si-(CH2-)2-S-(-CH2-)2-NH2, 2-(2-aminoethylthio)-ethyl 3,3,3-trifluoropropyl dimethyl silane] | 96.8 | –
CCN(CC)CSCC[Si](CC)(CC)CC [Et3Si-(-CH2)2-S-CH2-NEt2] | 90.5 | –
CC[Si](CC)(CC)CCSCCN [Et3Si-(-CH2-)2-S-(-CH2-)2-NH2, 2-(2-aminoethylthio)ethyl triethyl silane] | 90.8 | –
CCN(CC)CCSCCC[Si](CC)(CC)CC [Et3Si-(-CH2-)3-S-(-CH2-)2-NEt2] | 76.7 | –
CCN(CC)CSCCC[Si](CC)(CC)CC [Et3Si-(-CH2-)3-S-CH2-NEt2] | 84.4 | –
CC[Si](CC)(CC)CSCCN [Et3Si-CH2-S-(-CH2-)2-NH2, (2-aminoethylthio)methyl triethyl silane] | 91.1 | –
CCN(CC)CSC[Si](CC)(CC)CC [Et3Si-CH2-S-CH2-NEt2] | 81.7 | –
O=c1[nH]c(=O)n(C2CCCO2)cc1F (stereo not drawn) [FT-207, reference compound] | – | Tumor inhibiting efficiency ([1]; comparison, B-16 cells subcutaneously, dose at one time 130 mg): 20.5%
C[Si](C)(C)CCSCCN [Me3Si-(-CH2-)2-S-(-CH2-)2-NH2, 2-(2-aminoethylthio)ethyl trimethyl silane] | 95.6 | IC50 (Lewis lung cancer cells): 14 µg/mL (≈ 78.9 µM); IC50 (Ehrlich's cancer cells): 12 µg/mL (≈ 67.6 µM); IC50 (B-16 melanoma cells): 18 µg/mL (≈ 101 µM)
C[Si](C)(C)CCSCCN [Me3Si-(-CH2-)2-S-(-CH2-)2-NH2·CH3COOH] | – | Tumor inhibiting efficiency [1, 3]: 95.0%
C[Si](C)(C)CCSCCN [Me3Si-(-CH2-)2-S-(-CH2-)2-NH2·HCl, hydrochloride of 2-(2-aminoethylthio)ethyl trimethyl silane] | – | Tumor inhibiting efficiency [1, 3]: 97.9%
CCN(CC)CSCC[Si](C)(C)C [Me3Si-(-CH2-)2-S-CH2-NEt2] | 89.2 | –
C[Si](C)(C)CCCSCCN [Me3Si-(-CH2-)3-S-(-CH2-)2-NH2, 3-(2-aminoethylthio)propyl trimethyl silane] | 93.9 | –
CCN(CC)CSCCC[Si](C)(C)C [Me3Si-(-CH2-)3-S-CH2-NEt2] | 83.9 | –
CCN(CC)CSCC[Si](C)(CC)CC [Me·Et2Si-(-CH2-)2-S-CH2-NEt2] | 86.9 | –
CCN(CC)CSC[Si](C)(CC)CC [Me·Et2Si-CH2-S-CH2-NEt2] | 86.5 | –
C[Si](C)(CCSCCN)c1ccccc1 [Ph·Me2Si-(-CH2-)2-S-(-CH2-)2-NH2, 2-(2-aminoethylthio)ethyl phenyl dimethyl silane] | 82.6 | –
C=C[Si](C)(C)CCSCCN [Vi·Me2Si-(-CH2-)2-S-(-CH2-)2-NH2, 2-(2-aminoethylthio) ethyl vinyl dimethyl silane] | 95.7 | –

From patent publication EP0046242A1, “Anti-tumor agent comprising an organosilicon compound” (Shin-Etsu Chemical Co., Ltd., priority 1980, dated 1982)
